In PubChem BioAssay (NCI):
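Tested at 5 concentrations; 48 h exposure; 96-well plates; endpoints linearly interpolated, else capped at highest concentration. Abbreviation: GI50, concentration required for 50% inhibition of growth. TGI marks complete inhibition of growth.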

Legend:
Experiment in all cases: inhibition of tumour cell growth, NCI panel, 48 h
A498 renal = tested on: A498 renal
HT29 colon = tested on: HT29 colon
MOLT-4 leukemia = tested on: MOLT-4 leukemia
OVCAR-8 ovarian = tested on: OVCAR-8 ovarian
SK-MEL-28 melanoma = tested on: SK-MEL-28 melanoma
LOX IMVI melanoma = tested on: LOX IMVI melanoma
MALME-3M melanoma = tested on: MALME-3M melanoma
MDA-MB-231 breast = tested on: MDA-MB-231 breast
MDA-MB-435 = tested on: MDA-MB-435
NCI/ADR-RES ovarian = tested on: NCI/ADR-RES ovarian

Row | Compound | TGI (A498 renal) | TGI (HT29 colon) | TGI (MOLT-4 leukemia) | TGI (OVCAR-8 ovarian) | TGI (SK-MEL-28 melanoma) | TGI (LOX IMVI melanoma) | TGI (MALME-3M melanoma) | TGI (MDA-MB-231 breast) | TGI (MDA-MB-435) | TGI (NCI/ADR-RES ovarian) | GI50 (HT29 colon) | GI50 (LOX IMVI melanoma) | GI50 (MALME-3M melanoma) | GI50 (MDA-MB-435) | GI50 (MOLT-4 leukemia) | GI50 (NCI/ADR-RES ovarian) | GI50 (OVCAR-8 ovarian) | GI50 (SK-MEL-28 melanoma) | GI50 (A498 renal)
1 | C/C(N=NS(=O)(=O)c1ccc([N+](=O)[O-])cc1)=C1\C=CC=CN1O | > 100 µM | > 100 µM | > 100 µM | > 100 µM | > 100 µM | – | – | – | – | – | – | – | – | – | – | – | – | – | –
2 | [N-]=[N+]=CC(=O)OCCCCl | > 100 µM | > 100 µM | > 100 µM | – | > 100 µM | > 100 µM | > 100 µM | > 100 µM | > 100 µM | – | – | – | – | – | – | – | – | – | –
3 | C[C@@H]1CC(=O)C[C@@H]2CC[C@H]3[C@@H]4CC[C@H](OC(=O)c5cccc6cc7ccccc7nc56)[C@H]4CC[C@@H]3[C@H]21 | – | 29.3 µM | 31.7 µM | 38 µM | 93.3 µM | 39.8 µM | 22.8 µM | 37 µM | 35.1 µM | 55.1 µM | – | – | – | – | – | – | – | – | –
4 | O=C1/C(=C/c2ccc(O)cc2)COc2ccc(O)c(O)c21 | – | 16.9 µM | > 100 µM | > 100 µM | 64.6 µM | 3.22 µM | 4.58 µM | – | 4.91 µM | > 100 µM | 3.52 µM | 1.47 µM | 1.76 µM | 2.03 µM | 1.99 µM | 2.91 µM | 3.51 µM | 3.81 µM | –
5 | CC(=O)OC1[C@H](OC(C)=O)C2=C(C)[C@@H](OC(C)=O)C[C@@]2(C(C)(C)O)[C@@H](OC(C)=O)[C@H]2[C@@]1(C)[C@@H](OC(C)=O)CC(OC(C)=O)[C@]21CO1 (some centres not stated) | – | > 100 µM | > 100 µM | > 100 µM | > 100 µM | > 100 µM | > 100 µM | – | > 100 µM | – | – | – | – | – | – | – | – | – | –
6 | C=C=CC(NC(=O)c1ccccc1)(C(=O)O)C(F)(F)F (configuration not stated) | > 100 µM | > 100 µM | > 100 µM | > 100 µM | > 100 µM | > 100 µM | > 100 µM | – | – | – | – | – | – | – | – | – | – | – | –
7 | CC1OC2OC3C(OCC(O)C3O)OC(=O)[C@]34CCC(C)(C)CC3C3=CCC5[C@@]6(C)C[C@H](O)[C@H](OC7OC(CO)C(O)C(O)C7OC7OCC(OC(=O)CC(C)(O)CC(=O)OC1C(O)C2O)C(O)C7O)[C@@](C)(CO)C6CC[C@@]5(C)[C@]3(C)CC4 (some centres not stated) | – | 10.4 µM | 23.1 µM | 15.8 µM | 4.97 µM | 21.7 µM | 12.3 µM | 20.6 µM | 19.1 µM | 28.3 µM | – | – | – | – | – | – | – | – | –
8 | C(=Nc1ccc(-c2nc3ccccc3s2)cc1)c1ccc[nH]1 | 36.5 µM | 38.8 µM | 38.8 µM | > 100 µM | 42.5 µM | 33.3 µM | 32.2 µM | – | 41 µM | 44.6 µM | – | – | – | – | – | – | – | – | –
9 | O=C(O)/C=C/c1c[nH]c(=O)[nH]c1=O | > 500 µM | > 500 µM | > 281 µM | > 500 µM | > 500 µM | > 500 µM | > 500 µM | – | – | > 472 µM | > 500 µM | – | – | – | – | – | – | – | > 500 µM
10 | CC12CCC(CC1)C(C)(C)O2 | 99.6 µM | 128 µM | 77.2 µM | 133 µM | 131 µM | 48.7 µM | 122 µM | – | – | 266 µM | – | – | – | – | – | – | – | – | –
11 | Cc1cccc(N2C(=O)C3c4[nH]c5ccc(C)cc5c4C4CCC(C(C)(C)C)CC4C3C2=O)c1 (configuration not stated) | – | > 100 µM | 29.7 µM | 47.7 µM | > 100 µM | 43.7 µM | 71.2 µM | 38.4 µM | > 100 µM | 48.5 µM | – | – | – | – | – | – | – | – | –
12 | CNc1ncnc2c1nc(NC1CCCC1)n2C1OC(CO)C(O)C1O (configuration not stated) | > 100 µM | > 100 µM | > 100 µM | > 100 µM | > 100 µM | – | > 100 µM | > 100 µM | > 100 µM | > 100 µM | – | – | – | – | – | – | – | – | –
13 | C/C(=N\Nc1nc2ccccc2s1)c1cc2ccccc2cn1 | 29 µM | 11 µM | – | 16.5 µM | > 100 µM | 10.4 µM | > 100 µM | 33.9 µM | 72.8 µM | 42 µM | – | – | – | – | – | – | – | – | –
14 | Cn1c(=O)c2c(nc3sc4ccccc4c(=O)n32)n(C)c1=O | > 100 µM | > 100 µM | > 100 µM | > 100 µM | > 100 µM | > 100 µM | – | > 100 µM | > 100 µM | > 100 µM | – | – | – | – | – | – | – | – | –
15 | COC(=O)C1(SC)C2CCC3C2CCC31 (configuration not stated) | > 100 µM | – | > 100 µM | > 100 µM | > 100 µM | > 100 µM | > 100 µM | > 100 µM | > 100 µM | > 100 µM | – | – | – | – | – | – | – | – | –
16 | CN(CCNC(=O)c1c[nH]c2c1Cc1ccccc1-2)CCNC(=O)c1c[nH]c2c1Cc1ccccc1-2 | – | > 100 µM | 63.7 µM | > 100 µM | > 100 µM | > 100 µM | > 100 µM | 80.6 µM | 41.3 µM | > 100 µM | – | – | – | – | – | – | – | – | –
